Experimental data reported in PubChem BioAssay AID256 (DTP/NCI, 2004).
“And” between values parts separate entries of the source, which are not always exact repeats. Identical values can stand only once. Toxic doses and inconclusive results are not listed. How the source made its calls: active means survival T/C of 150% or more; inactive means T/C below 125% in these data.

Tested on: CD2F1 mice, L1210 leukemia ip, survival T/C
Test: NCI In Vivo Anticancer Drug Screen. Data for tumor model L1210 Leukemia (intraperitoneal) in CD2F1 (CDF1) mice
Settings: higher = longer survival
Outline: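 Activity against a transplanted murine tumor was judged by comparing the compound group with a vehicle group. The outcome in the treated animals was divided by that in the controls.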

[1] = endpoint: mean survival time, dose: 100.0 mg/kg/injection, schedule: Q04DX003 (ip), vehicle: saline with Tween-80
[2] = endpoint: mean survival time, dose: 100.0 mg/kg/injection, schedule: Q01DX009 (ip), vehicle: saline with Tween-80
[3] = endpoint: mean survival time, dose: 200.0 mg/kg/injection, schedule: Q01DX009 (ip), vehicle: saline with Tween-80
[4] = endpoint: mean survival time, dose: 200.0 mg/kg/injection, schedule: Q04DX003 (ip), vehicle: saline with Tween-80
[5] = endpoint: mean survival time, dose: 400.0 mg/kg/injection, schedule: Q01DX009 (ip), vehicle: saline with Tween-80
[6] = endpoint: mean survival time, dose: 400.0 mg/kg/injection, schedule: Q04DX003 (ip), vehicle: saline with Tween-80
[7] = endpoint: mean survival time, dose: 100.0 mg/kg/injection, schedule: Q01DX001 (ip), vehicle: saline with Tween-80
[8] = endpoint: mean survival time, dose: 200.0 mg/kg/injection, schedule: Q01DX001 (ip), vehicle: saline with Tween-80
[9] = endpoint: mean survival time, dose: 100.0 mg/kg/injection, schedule: Q04DX002 (ip), vehicle: saline with Tween-80
[10] = endpoint: mean survival time, dose: 200.0 mg/kg/injection, schedule: Q04DX002 (ip), vehicle: saline with Tween-80
[11] = endpoint: mean survival time, dose: 400.0 mg/kg/injection, schedule: Q04DX002 (ip), vehicle: saline with Tween-80
[12] = endpoint: mean survival time, dose: 25.0 mg/kg/injection, schedule: Q01DX005 (ip), vehicle: water
[13] = endpoint: mean survival time, dose: 50.0 mg/kg/injection, schedule: Q01DX005 (ip), vehicle: water
[14] = endpoint: mean survival time, dose: 100.0 mg/kg/injection, schedule: Q01DX005 (ip), vehicle: water
[15] = endpoint: mean survival time, dose: 200.0 mg/kg/injection, schedule: Q01DX005 (ip), vehicle: water
[16] = endpoint: mean survival time, dose: 100.0 mg/kg/injection, schedule: Q04DX002 (ip), vehicle: saline
[17] = endpoint: mean survival time, dose: 100.0 mg/kg/injection, schedule: Q01DX001 (ip), vehicle: saline
[18] = endpoint: mean survival time, dose: 200.0 mg/kg/injection, schedule: Q01DX001 (ip), vehicle: saline
[19] = endpoint: mean survival time, dose: 400.0 mg/kg/injection, schedule: Q01DX001 (ip), vehicle: saline
[20] = endpoint: mean survival time, dose: 400.0 mg/kg/injection, schedule: Q01DX001 (ip), vehicle: saline with Tween-80

Measured: T/C

O=C(Nc1ccc(C2=NCCN2)cc1)c1ccc(C(=O)Nc2ccc(C3=NCCN3)cc2)c(NC(=O)c2ccc(C(=O)Nc3cc(C(=O)Nc4ccc(C5=NCCN5)cc4)ccc3C(=O)Nc3ccc(C4=NCCN4)cc3)cc2)c1
inactive: endpoint: mean survival time, dose: 12.5 mg/kg/injection, schedule: Q01DX008 (iv), vehicle: other 101 % of control | endpoint: mean survival time, dose: 25.0 mg/kg/injection, schedule: Q01DX008 (iv), vehicle: other 101 % of control | endpoint: mean survival time, dose: 50.0 mg/kg/injection, schedule: Q01DX008 (iv), vehicle: other 103 % of control

N#Cc1cn(C2OC(CO)C3OC32)c2ncnc(NC(=O)c3ccccc3)c12 (centres undefined)
inactive: endpoint: mean survival time, dose: 25.0 mg/kg/injection, schedule: Q01DX005 (ip), vehicle: distilled water + Tween-80 103 % of control | endpoint: mean survival time, dose: 50.0 mg/kg/injection, schedule: Q01DX005 (ip), vehicle: distilled water + Tween-80 104 % of control | endpoint: mean survival time, dose: 100.0 mg/kg/injection, schedule: Q01DX005 (ip), vehicle: distilled water + Tween-80 114 % of control | endpoint: mean survival time, dose: 200.0 mg/kg/injection, schedule: Q01DX005 (ip), vehicle: distilled water + Tween-80 110 % of control

C[N+](C)(C)CC(=O)N/N=C\c1c(O)ccc2ccccc12
inactive: [1] 97 % of control

CCCCCCCC(=O)Nc1cc(C)ccc1C
inactive: [2] 94 % of control | [1] 98 % of control | [3] 94 % of control | [4] 97 % of control | [5] 98 % of control | [6] 98 % of control

O=C1c2ccccc2C(=O)N1C1C=CC=CC=C1
inactive: [2] 95 % of control | [1] 104 % of control | [3] 93 % of control | [4] 97 % of control | [5] 96 % of control | [6] 97 % of control

c1ccc2c(c1)OCC(CN1CCc3[nH]c4ccccc4c3C1)O2 (centres undefined)
inactive: endpoint: mean survival time, dose: 50.0 mg/kg/injection, schedule: Q01DX001 (ip), vehicle: saline with Tween-80 106 % of control | [7] 98 % of control | [8] 93 % of control

CCOc1ccccc1OC(=O)Nc1ccccc1OC
inactive: [9] 106 % of control | [10] 88 % of control | [11] 100 % of control

Cc1nc(C(=O)O)c(C)c(=O)[nH]1
inactive: [12] 98 % of control | [13] 104 % of control | [14] 89 % of control | [15] 87 % of control

N=C(CN1CCCCC1)N1CCCCC1
inactive: endpoint: mean survival time, dose: 25.0 mg/kg/injection, schedule: Q04DX002 (ip), vehicle: saline 104 % of control | endpoint: mean survival time, dose: 50.0 mg/kg/injection, schedule: Q04DX002 (ip), vehicle: saline 101 % of control | [16] 112 % of control

O=C(Nc1ccc(Cl)c(Cl)c1)Nc1ccc(Cl)c(Cl)c1 (tested in a mixture with another compound)
inactive: [9] 97 % of control | [10] 90 % of control | [11] 97 % of control

Cc1c(NC(=O)Nc2cc([N+](=O)[O-])ccc2Cl)c(=O)n(-c2ccccc2)n1C
inactive: [17] 96 % of control | [2] 89 % of control and 98 % of control | [16] 93 % of control and 107 % of control | [1] 104 % of control | [18] 86 % of control | [3] 96 % of control and 102 % of control | endpoint: mean survival time, dose: 200.0 mg/kg/injection, schedule: Q04DX002 (ip), vehicle: saline 95 % of control and 96 % of control | [4] 104 % of control | [19] 86 % of control | [5] 96 % of control | endpoint: mean survival time, dose: 400.0 mg/kg/injection, schedule: Q04DX002 (ip), vehicle: saline 91 % of control and 107 % of control | [6] 95 % of control

CCN(CC)Cc1cc(Nc2ncnc3sc(C)c(C)c23)ccc1O
inactive: [1] 92 % of control | [4] 88 % of control | [6] 91 % of control

O=C1C(=O)N(CNC(c2ccccc2)c2ccccc2)c2ccccc21
inactive: [7] 101 % of control | [20] 86 % of control

Nc1nc(N)c2[nH]c(-c3ccccc3)nc2n1
inactive: endpoint: mean survival time, dose: 6.25 mg/kg/injection, schedule: Q01DX005 (ip), vehicle: saline with Tween-80 100 % of control | endpoint: mean survival time, dose: 12.5 mg/kg/injection, schedule: Q01DX005 (ip), vehicle: saline with Tween-80 97 % of control | endpoint: mean survival time, dose: 25.0 mg/kg/injection, schedule: Q01DX005 (ip), vehicle: saline with Tween-80 99 % of control | endpoint: mean survival time, dose: 50.0 mg/kg/injection, schedule: Q01DX005 (ip), vehicle: saline with Tween-80 99 % of control

CSc1nc(SC)c2c3c(N)ncnc3n(C3OC(CO)C(O)C3O)c2n1 (centres undefined)
inactive: endpoint: mean survival time, dose: 12.5 mg/kg/injection, schedule: Q01DX005 (ip), vehicle: other 107 % of control | endpoint: mean survival time, dose: 25.0 mg/kg/injection, schedule: Q01DX005 (ip), vehicle: other 121 % of control | endpoint: mean survival time, dose: 100.0 mg/kg/injection, schedule: Q01DX005 (ip), vehicle: other 119 % of control | endpoint: mean survival time, dose: 250.0 mg/kg/injection, schedule: Q01DX005 (ip), vehicle: other 121 % of control

CSc1cc(=O)n(C2OC(COCc3ccccc3)C(OCc3ccccc3)C2OCc2ccccc2)c(=O)[nH]1 (centres undefined)
inactive: endpoint: mean survival time, dose: 100.0 mg/kg/injection, schedule: Q01DX005 (ip), vehicle: saline 111 % of control | endpoint: mean survival time, dose: 200.0 mg/kg/injection, schedule: Q01DX005 (ip), vehicle: saline 107 % of control

CCC1(O)C(=O)OCc2c1cc1n(c2=O)Cc2cc3ccc(C)cc3nc2-1 (centres undefined)
inactive: endpoint: median survival time, dose: 10.0 mg/kg/injection, schedule: Q04DX002 (ip), vehicle: saline with Tween-80 108 % of control

CN(C)Cc1cn(C2CC(O)C(CO)O2)c(=O)[nH]c1=O (centres undefined)
inactive: endpoint: mean survival time, dose: 12.5 mg/kg/injection, schedule: Q01DX005 (ip), vehicle: water 101 % of control | [12] 98 % of control | [13] 104 % of control | [14] 106 % of control | [15] 104 % of control

COc1ccc(-c2ncn(-c3ccc(S(=O)(=O)O)cc3)c2-c2ccc(OC)cc2)cc1
inactive: endpoint: mean survival time, dose: 100.0 mg/kg/injection, schedule: Q04DX003 (ip), vehicle: Klucel (hydroxypropylcellulose) (HPC) 95 % of control | endpoint: mean survival time, dose: 200.0 mg/kg/injection, schedule: Q04DX003 (ip), vehicle: Klucel (hydroxypropylcellulose) (HPC) 95 % of control | endpoint: mean survival time, dose: 400.0 mg/kg/injection, schedule: Q04DX003 (ip), vehicle: Klucel (hydroxypropylcellulose) (HPC) 102 % of control

COc1ccc(NC2=C(C)C(=O)C3=C(C2=O)[C@H](COC(N)=O)[C@]2(OC)[C@@H]4N[C@@H]4CN32)cc1OC
inactive: endpoint: median survival time, dose: 3.0 mg/kg/injection, schedule: Q01DX001 (ip), vehicle: water 124 % of control and 111 % of control | endpoint: median survival time, dose: 6.0 mg/kg/injection, schedule: Q01DX001 (ip), vehicle: water 124 % of control | endpoint: median survival time, dose: 24.0 mg/kg/injection, schedule: Q01DX001 (ip), vehicle: water 110 % of control

CC(=O)Nc1ccc(C(=O)C=P(c2ccccc2)(c2ccccc2)c2ccccc2)cc1
inactive: [17] 101 % of control | [18] 97 % of control | [19] 97 % of control

CS(=O)(=O)Nc1ccc(NS(C)(=O)=O)cc1
inactive: [1] 98 % of control | [4] 102 % of control | [6] 97 % of control

Cc1[nH]c(=O)[nH]c(=O)c1NC(=O)c1ccccc1[N+](=O)[O-]
inactive: endpoint: mean survival time, dose: 12.5 mg/kg/injection, schedule: Q01DX009 (ip), vehicle: saline with Tween-80 98 % of control | endpoint: mean survival time, dose: 12.5 mg/kg/injection, schedule: Q04DX003 (ip), vehicle: saline sonified 100 % of control | endpoint: mean survival time, dose: 25.0 mg/kg/injection, schedule: Q01DX009 (ip), vehicle: saline with Tween-80 104 % of control | endpoint: mean survival time, dose: 25.0 mg/kg/injection, schedule: Q04DX003 (ip), vehicle: saline sonified 103 % of control | endpoint: mean survival time, dose: 50.0 mg/kg/injection, schedule: Q01DX009 (ip), vehicle: saline with Tween-80 97 % of control | endpoint: mean survival time, dose: 50.0 mg/kg/injection, schedule: Q04DX003 (ip), vehicle: saline sonified 94 % of control

CC(NC(=O)c1cnc2ccccc2n1)C(=O)NC(C(=O)O)C(C)C (centres undefined)
inactive: [17] 100 % of control | [18] 100 % of control | [19] 102 % of control

O=C(CCCl)c1ccc2c(c1)OCO2
inactive: [17] 104 % of control | [18] 96 % of control

[CH3][Sn]([Br])([Br])[CH2]CCCBr
inactive: endpoint: mean survival time, dose: 0.39 mg/kg/injection, schedule: Q01DX009 (ip), vehicle: saline 90 % of control | endpoint: mean survival time, dose: 0.78 mg/kg/injection, schedule: Q01DX009 (ip), vehicle: saline 97 % of control | endpoint: mean survival time, dose: 1.56 mg/kg/injection, schedule: Q01DX009 (ip), vehicle: saline 97 % of control | endpoint: mean survival time, dose: 6.25 mg/kg/injection, schedule: Q01DX009 (ip), vehicle: saline 110 % of control

C/C=C/c1cnc(N)nc1-c1ccc(OC)cc1
inactive: [7] 97 % of control | [8] 94 % of control | [20] 97 % of control
